From article PMC10767194 (The Journal of Biological Chemistry, 2023)

Legend:
Cdk12/CycK = target: T1, Cdk12/CycK (Homo sapiens, UniProt Q9NYV4); assay: radioactive in vitro kinase assay, Cdk12/CycK; format: biochemical; details: 0, 0.1, 1, 10, 100 μM compound, 0.2 μM Cdk12, 0.2 mM ATP, His-c-Myc, 20 min
T1 construct: GST (TEV site) (N, cleaved yes); made in house; host or cells: Sf9 insect cells, co-expressed with S. cerevisiae CAK1
Experimental: To a concentration of 0.2 μM kinase and 0.2 mM ATP, a compound concentration ranging from 0.1 nM to 1 mM was applied. Kinase reactions were started by the addition of 100 μM CTD peptide containing three hepta-repeats continuously prephosphorylated at position S7 (pS7-CTD[3]) and terminated after 60 min incubation time. In vitro IC50-values were determined by applying a sigmoidal fit to dose-response measurements (Fig. 1A).
Cdk12 kinase (0.2 μM) in the presence of 0.2 mM ATP were supplemented with respective compounds at concentrations of 0, 0.1, 1, 10, and 100 μM for 5 min. Upon addition of 50 μM His-c-Myc substrate the kinase assay reaction was conducted for 20 min.
Radioactive kinase activity assays were performed in a total volume of 15 μl per sample in kinase assay buffer (50 mM Hepes/pH 7.6, 34 mM KCl, 7 mM MgCl2, 5 mM β-glycerol phosphate, and 2.5 mM dithioerythritol). Preincubation of 0.2 μM or 0.02 μM recombinant protein kinase with indicated concentrations of respective inhibitor and 0.2 to 2 mM ATP containing 0.45 mCi [^32P]-γ-ATP/ml (PerkinElmer) was carried out for 5 min. Kinase reactions were started by addition of substrate protein (10 μM GST-Rb1 for Cdk4/CycD3, 10 μM GST-CTD[52] for Cdk7/CycH/MAT1, 50 μM His-c-Myc for all others) and incubated for 20 min at 30 °C in a shaking incubator at 300 rpm. For pS7-CTD[3] peptide, the substrate concentration was increased to 100 μM and assays were performed for 60 min. Reactions were terminated by the addition of EDTA to a final concentration of 50 mM. Reaction samples were separately spotted onto Amersham Protran nitrocellulose membranes (GE HealthCare) and subsequently washed three times for 5 min in PBS. Samples were transferred to 4 ml liquid scintillation vials and 2 ml liquid scintillator (Ultima Gold) were added. Radioactive counts were determined in a Beckman Liquid Scintillation Counter (Beckman Coulter) for 1 min. […] For analysis of dose response measurements and IC50 value determination, data of inhibitor-supplemented samples were normalized to DMSO solvent controls and their activity plotted against the inhibitor concentration. IC50 values were extracted from triplicate measurements by sigmoidal curve fitting using DataGraph (v. 5.0; https://www.visualdatatools.com/DataGraph/) or were determined by applying the Morrison quadratic equation for tight binding inhibitors using GraphPad Prism 10 (https://www.graphpad.com/) ([40]).

Cdk10/CycQ = target: T2, Cdk10/CycQ (Homo sapiens, UniProt Q15131); assay: radioactive in vitro kinase assay, Cdk10/CycQ; format: biochemical; details: 0.2 mM ATP
T2 construct: Full-length, human, WT Cdk10 (residues 1–360, UniProt Q15131); made in house; host or cells: Sf9 insect cells
T2 sequence (Q15131 whole entry, the tested form may be a part): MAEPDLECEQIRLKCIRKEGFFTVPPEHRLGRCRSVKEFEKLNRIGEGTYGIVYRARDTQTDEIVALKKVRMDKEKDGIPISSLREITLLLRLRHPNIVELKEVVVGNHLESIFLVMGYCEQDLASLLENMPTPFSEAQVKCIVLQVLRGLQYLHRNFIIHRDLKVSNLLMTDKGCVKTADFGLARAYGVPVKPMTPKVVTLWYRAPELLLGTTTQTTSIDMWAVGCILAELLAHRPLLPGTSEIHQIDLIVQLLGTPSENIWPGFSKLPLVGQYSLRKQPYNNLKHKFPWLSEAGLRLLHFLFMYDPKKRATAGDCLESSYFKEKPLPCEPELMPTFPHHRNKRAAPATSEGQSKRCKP
T2 sequence (Q8N1B3 whole entry partner, the tested form may be a part): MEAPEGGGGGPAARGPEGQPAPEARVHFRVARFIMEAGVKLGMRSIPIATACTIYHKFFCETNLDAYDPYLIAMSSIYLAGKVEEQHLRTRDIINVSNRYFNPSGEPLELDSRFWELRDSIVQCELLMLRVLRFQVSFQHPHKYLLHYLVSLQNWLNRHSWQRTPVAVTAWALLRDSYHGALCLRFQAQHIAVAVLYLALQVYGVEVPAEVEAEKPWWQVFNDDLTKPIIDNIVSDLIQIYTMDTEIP
Experimental: (§1) Radioactive kinase activity assays were performed in a total volume of 15 μl per sample in kinase assay buffer (50 mM Hepes/pH 7.6, 34 mM KCl, 7 mM MgCl2, 5 mM β-glycerol phosphate, and 2.5 mM dithioerythritol). Preincubation of 0.2 μM or 0.02 μM recombinant protein kinase with indicated concentrations of respective inhibitor and 0.2 to 2 mM ATP containing 0.45 mCi [^32P]-γ-ATP/ml (PerkinElmer) was carried out for 5 min. Kinase reactions were started by addition of substrate protein (10 μM GST-Rb1 for Cdk4/CycD3, 10 μM GST-CTD[52] for Cdk7/CycH/MAT1, 50 μM His-c-Myc for all others) and incubated for 20 min at 30 °C in a shaking incubator at 300 rpm. For pS7-CTD[3] peptide, the substrate concentration was increased to 100 μM and assays were performed for 60 min. Reactions were terminated by the addition of EDTA to a final concentration of 50 mM. […] Radioactive counts were determined in a Beckman Liquid Scintillation Counter (Beckman Coulter) for 1 min. […] IC50 values were extracted from triplicate measurements by sigmoidal curve fitting using DataGraph (v. 5.0; https://www.visualdatatools.com/DataGraph/) or were determined by applying the Morrison quadratic equation for tight binding inhibitors using GraphPad Prism 10 (https://www.graphpad.com/) ([40]).

Cdk9/CycT1 = target: T3, Cdk9/CycT1 (Homo sapiens, UniProt P50750); assay: radioactive in vitro kinase assay, Cdk9/CycT1; format: biochemical; details: 0, 0.1, 1, 10, 100 μM compound, 0.2 μM kinase, 0.2 mM ATP
T3 construct: Full-length, human, WT Cdk9 (residues 1–372, UniProt P50750); made in house; host or cells: Cdk9: Sf9 insect cells; CycT1: E. coli
T3 sequence (P50750 whole entry, the tested form may be a part): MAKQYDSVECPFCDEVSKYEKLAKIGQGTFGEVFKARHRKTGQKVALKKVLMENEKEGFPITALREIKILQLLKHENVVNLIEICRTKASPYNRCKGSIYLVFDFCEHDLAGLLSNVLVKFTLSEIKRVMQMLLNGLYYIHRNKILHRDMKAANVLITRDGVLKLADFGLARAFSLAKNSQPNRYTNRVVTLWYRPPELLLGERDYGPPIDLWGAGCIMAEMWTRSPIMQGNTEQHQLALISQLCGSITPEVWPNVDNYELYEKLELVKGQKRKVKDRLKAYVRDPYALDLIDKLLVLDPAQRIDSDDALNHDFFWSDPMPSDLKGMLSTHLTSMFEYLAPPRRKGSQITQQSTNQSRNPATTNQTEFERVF
T3 sequence (O60563 1-272 partner limits assumed): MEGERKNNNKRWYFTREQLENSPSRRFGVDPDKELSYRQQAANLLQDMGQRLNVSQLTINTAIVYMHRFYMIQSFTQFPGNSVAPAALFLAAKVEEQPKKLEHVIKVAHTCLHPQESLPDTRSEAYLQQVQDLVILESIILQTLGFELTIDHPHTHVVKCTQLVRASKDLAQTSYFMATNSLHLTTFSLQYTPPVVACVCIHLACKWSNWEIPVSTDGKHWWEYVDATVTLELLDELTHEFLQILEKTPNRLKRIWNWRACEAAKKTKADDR
Experimental: as §1

Cdk4/CycD3 = tested on: T4, Cdk4/CycD3; assay: radioactive in vitro kinase assay, Cdk4/CycD3; format: biochemical, human; details: 0, 0.1, 1, 10, 100 μM compound, 0.2 μM kinase, 0.2 mM ATP
T4 construct: GST (of the complex); made in house; host or cells: Sf9 insect cells
Experimental: as §1

DYRK1A = tested on: T5, DYRK1A; assay: radioactive in vitro kinase assay, DYRK1A; format: biochemical, human; details: 0, 0.1, 1, 10, 100 μM compound, 0.2 μM kinase, 0.2 mM ATP
T5 construct: The kinase domain of human DYRK1A (residues 126–485, UniProt Q13627); made in house; host or cells: E. coli BL21 pLysS
Experimental: as §1

HIPK1 = tested on: T6, HIPK1; assay: radioactive in vitro kinase assay, HIPK1; format: biochemical, human; details: 0, 0.1, 1, 10, 100 μM compound, 0.2 μM kinase, 0.2 mM ATP
T6 construct: human HIPK1 (residues 154–554, UniProt Q86Z02); made in house; host or cells: Sf9 insect cells
Experimental: as §1

HIPK2 = tested on: T7, HIPK2; assay: radioactive in vitro kinase assay, HIPK2; format: biochemical, human; details: 0, 0.1, 1, 10, 100 μM compound, 0.2 μM kinase, 0.2 mM ATP
T7 construct: human HIPK2 (residues 160–563, UniProt Q9H2X6); made in house; host or cells: Sf9 insect cells
Experimental: as §1

Cdk13/CycK = target: T8, Cdk13/CycK (Homo sapiens, UniProt Q14004); assay: nanoDSF thermal protein stability, Cdk13/CycK; format: binding; details: 5 μM protein
T8 construct: The kinase domain of human Cdk13 (residues 694–1039, UniProt Q14004); made in house; host or cells: Sf9 insect cells, co-expressed with CAK1
T8 sequence (Q14004 694-1039): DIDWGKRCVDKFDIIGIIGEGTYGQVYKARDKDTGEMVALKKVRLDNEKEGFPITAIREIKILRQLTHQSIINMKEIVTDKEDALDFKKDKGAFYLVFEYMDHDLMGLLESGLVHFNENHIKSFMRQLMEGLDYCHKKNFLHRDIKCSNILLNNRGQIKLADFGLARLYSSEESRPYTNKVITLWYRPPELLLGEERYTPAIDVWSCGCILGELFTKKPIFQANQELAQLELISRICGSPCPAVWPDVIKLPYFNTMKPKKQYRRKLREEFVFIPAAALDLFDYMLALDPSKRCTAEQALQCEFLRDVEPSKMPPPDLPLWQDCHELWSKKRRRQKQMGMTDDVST
T8 sequence (O75909 1-267 partner limits assumed): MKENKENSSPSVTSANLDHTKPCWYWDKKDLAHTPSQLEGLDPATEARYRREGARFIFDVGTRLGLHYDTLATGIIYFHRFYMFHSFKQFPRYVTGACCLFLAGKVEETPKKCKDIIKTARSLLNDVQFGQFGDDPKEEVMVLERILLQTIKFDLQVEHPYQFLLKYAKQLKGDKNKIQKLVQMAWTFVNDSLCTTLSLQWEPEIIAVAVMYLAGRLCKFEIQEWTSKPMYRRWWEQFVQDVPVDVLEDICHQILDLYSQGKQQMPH
Experimental: At 10 μM concentration, the thermal shift observed was +4.7 °C, while at 100 μM the thermal stability was increased by +6.2 °C (Table S2) compared to a DMSO control. Together, the results obtained from both SPR and nanoDSF measurements align well with the IC50 values determined for Cdk12∗/CycK and Cdk13∗/CycK kinases.
For identification of thermal protein stability, nanoDSF experiments were conducted using a Prometheus NT.48 (NanoTemper) instrument. […] at the wavelengths λ = 330 and 350 nm were monitored at an excitation power of 25% in a temperature range from 20 to 90 °C with a slope of 1.5 °C/min. The measurement was conducted and evaluated with the PR.ThermControl software (https://nanotempertech.com/prometheus/nt48-software/). Experiments were conducted in duplicates.

T1 sequence (Q9NYV4 714-1063): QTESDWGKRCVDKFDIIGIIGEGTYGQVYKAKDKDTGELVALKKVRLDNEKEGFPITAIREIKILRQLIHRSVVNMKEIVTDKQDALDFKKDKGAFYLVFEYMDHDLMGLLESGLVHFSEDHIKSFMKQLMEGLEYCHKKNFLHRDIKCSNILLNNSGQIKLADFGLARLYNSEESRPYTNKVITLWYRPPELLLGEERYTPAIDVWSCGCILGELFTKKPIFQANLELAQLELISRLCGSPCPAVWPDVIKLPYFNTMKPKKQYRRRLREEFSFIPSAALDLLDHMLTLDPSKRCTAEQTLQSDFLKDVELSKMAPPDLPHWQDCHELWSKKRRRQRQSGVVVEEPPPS
T1 sequence (O75909 1-267 partner limits assumed): as the sequence (O75909 1-267 partner limits assumed) above

SMILES: Cn1cc(-n2cnc3c(NCc4nc5cc(Cl)c(Cl)cc5[nH]4)nc(N4CCOCC4)nc32)cn1 [SR-4835]
- inhibitory effect on Cdk12/CycK activity, in words (Cdk12/CycK): modest effects
- inhibition of Cdk10/CycQ activity (Cdk10/CycQ; 0, 0.1, 1, 10, 100 μM compound, 0.2 μM kinase): moderate SR-4835 concentration dependent decrease
- IC50 (Cdk10/CycQ; concentration range 1 nM to 1 mM, sigmoidal fit): 1070 nM
- inhibition of Cdk9 activity (Cdk9/CycT1): no inhibitory activity
- inhibition of Cdk4/CycD3 activity (Cdk4/CycD3): minimal decrease in kinase activity
- inhibition of DYRK1A activity (DYRK1A): not inhibited
- inhibition of HIPK1 activity (HIPK1): not inhibited
- inhibition of HIPK2 activity (HIPK2): not inhibited
- Tm, Cdk13/CycK (Cdk13/CycK; 1 μM compound): 54.40 °C
- ∆Tm to DMSO control, Cdk13/CycK (Cdk13/CycK; 1 μM compound): +0.25 °C
- Tm, Cdk13/CycK (Cdk13/CycK; 10 μM compound): 58.80 °C
- Tm, Cdk13/CycK (Cdk13/CycK; 100 μM compound): 60.30 °C
